Experimental data: US20100062046A1, “POLYMORPHS OF NICOTINIC INTERMEDIATES” (priority 2006, published 2010)

Key:
Type in all cases: physicochemical
[1] = Hygroscopicity of crystalline forms; details: crystalline solid
[2] = Relative stability of crystalline forms, studies in dichloromethane, ethyl acetate, methanol and toluene; details: compound II
Method: Form B was obtained mainly from fast evaporations of ethyl acetate and methyl ethyl ketone, and from a solvent/antisolvent. […] Form A has a melting point of ˜177° C. and Form B has a melting point of ˜170° C.

[3] = Storage of Form C at high humidities; details: stored at high humidities
From the text: and is observed when Form C is stored at high humidities. […] The lot used to generate this X-ray powder diffraction and Raman data may contain residual compound IV Form C.

O=C(N1CC2CC(C1)c1cc([N+](=O)[O-])c([N+](=O)[O-])cc12)C(F)(F)F [Compound II Form A, 1,5-Methano-1H-3-benzazepine-2,3,4,5-tetrahydro-7,8-dinitro-3-(trifluoroacetyl)]
hygroscopicity [1]: non-hygroscopic | relative stability of crystalline forms ([2]; ambient temperature and 60° C., dichloromethane, ethyl acetate, methanol, toluene): more stable than Form B

O=C(N1CC2CC(C1)c1cc([N+](=O)[O-])c([N+](=O)[O-])cc12)C(F)(F)F [Compound II Form B, 1,5-Methano-1H-3-benzazepine-2,3,4,5-tetrahydro-7,8-dinitro-3-(trifluoroacetyl)]
form conversion upon heating ([2]; upon heating): converts to Form A upon heating

O=C(N1CC2CC(C1)c1cc3nccnc3cc12)C(F)(F)F [Compound III Form A, 6,10-Methano-6H-pyrazino[2,3-h][3]benzazepine,7,8,9,10-tetrahydro-8-(trifluoroacetyl)]
hygroscopicity [1]: non-hygroscopic

c1cnc2cc3c(cc2n1)C1CNCC3C1 [Compound IV Form C]
formation of N-carboxyvarenicline adduct on storage [3]: observed
